Non-standard residues stand in square brackets, D forms with d. Residues, ends and D or L forms follow the SMILES beside them. *: point of attachment. Desaminotyrosyl = O=C(CCc1ccc(O)cc1)*; Phg = N[C@H](C(=O)O)c1ccccc1; Nva = CCC[C@H](N)C(=O)O; βAla = NCCC(=O)O
How the values were obtained:
CD1 mice = experiment: Intestinotrophic activity assessment: small bowel weight in mice; assay type: in vivo; settings: for % Activity (small bowel inducing activity relative to native rat GLP-2(1-33) = 100%): mice, as Example 4; for % Increase in small bowel weight: CD1 mice, 2.5 μg peptide s.c. b.i.d. in PBS, sacrificed 10 or 14 days, relative to vehicle only
In short: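 Activity expressed against native rat GLP-2(1-33) (100%) and as percent bowel-weight change over vehicle controls, from excised pylorus-to-cecum small bowel. Dosing: 2.5 μg peptide subcutaneously twice daily to 6-week female CD1 mice (n=3-4), killed at day 10 or 14 after fasting ≥20 h.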

DPP-IV = DPP-IV (Homo sapiens, UniProt P27487); experiment: Assay for resistance to dipeptidyl peptidase IV (RP-HPLC of cleavage product); settings: human, isolated human placental DPP-IV (dipeptidyl peptidase IV), pH 7.4, % Cleaved by DPP-IV, as Example 3: human placental DPP-IV, 37° C., PBS pH 7.4
Chain of DPP-IV (P27487 whole entry): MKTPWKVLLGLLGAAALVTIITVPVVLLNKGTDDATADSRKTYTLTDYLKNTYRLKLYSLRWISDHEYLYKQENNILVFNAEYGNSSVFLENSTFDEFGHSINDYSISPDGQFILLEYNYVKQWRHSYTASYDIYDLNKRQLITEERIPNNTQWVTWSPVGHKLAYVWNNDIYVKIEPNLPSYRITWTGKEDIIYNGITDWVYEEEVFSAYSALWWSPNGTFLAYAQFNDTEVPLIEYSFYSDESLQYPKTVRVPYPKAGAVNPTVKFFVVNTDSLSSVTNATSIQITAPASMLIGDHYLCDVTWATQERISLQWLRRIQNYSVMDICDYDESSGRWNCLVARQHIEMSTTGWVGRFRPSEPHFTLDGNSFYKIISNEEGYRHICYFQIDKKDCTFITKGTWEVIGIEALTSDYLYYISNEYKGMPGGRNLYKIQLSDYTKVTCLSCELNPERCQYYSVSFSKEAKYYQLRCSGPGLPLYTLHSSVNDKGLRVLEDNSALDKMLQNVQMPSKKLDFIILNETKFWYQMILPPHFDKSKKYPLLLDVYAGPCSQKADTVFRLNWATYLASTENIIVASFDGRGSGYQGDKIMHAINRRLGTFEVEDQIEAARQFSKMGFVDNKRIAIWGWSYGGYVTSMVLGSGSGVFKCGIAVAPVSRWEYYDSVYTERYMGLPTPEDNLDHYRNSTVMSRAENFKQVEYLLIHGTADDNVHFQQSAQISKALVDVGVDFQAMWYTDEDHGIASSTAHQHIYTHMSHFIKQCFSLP

Compound: CC[C@H](C)[C@H](NC(=O)[C@H](Cc1ccccc1)NC(=O)[C@H](CC(=O)O)NC(=O)[C@H](CCCNC(=N)N)NC(=O)[C@H](C)NC(=O)[C@H](C)NC(=O)[C@H](CC(C)C)NC(=O)[C@H](CC(N)=O)NC(=O)[C@H](CC(=O)O)NC(=O)[C@H](CC(C)C)NC(=O)[C@@H](NC(=O)[C@@H](NC(=O)[C@H](CC(N)=O)NC(=O)[C@H](CCSC)NC(=O)[C@H](CCC(=O)O)NC(=O)[C@H](CC(=O)O)NC(=O)[C@H](CO)NC(=O)[C@H](Cc1ccccc1)NC(=O)[C@H](CO)NC(=O)CNC(=O)[C@H](CC(=O)O)NC(=O)[C@H](C)NC(=O)CCc1ccc(O)cc1)[C@@H](C)O)[C@@H](C)CC)C(=O)N[C@@H](CC(N)=O)C(=O)N[C@@H](Cc1c[nH]c2ccccc12)C(=O)N[C@@H](CC(C)C)C(=O)N[C@H](C(=O)N[C@@H](CCC(N)=O)C(=O)N[C@H](C(=O)N[C@@H](CCCCN)C(=O)N[C@H](C(=O)N[C@H](C(=O)N[C@@H](CC(=O)O)C(=O)O)[C@@H](C)O)[C@@H](C)CC)[C@@H](C)O)[C@@H](C)CC [[desNH2Tyr1]hGLP-2(1-33)] (Desaminotyrosyl-ADGSFSDEMNTILDNLAARDFINWLIQTKITD-OH)
- % Activity (small bowel inducing activity relative to native rat GLP-2(1-33) = 100%) (CD1 mice): 125%
- metabolised at 24 h, 0.19 mg/ml (DPP-IV): 15%

Compound: H-HPDGSFSDEMNTILDNLAARDFINWLIQTKITD-OH [[Pro2]hGLP-2(1-33)]
- % Activity (small bowel inducing activity relative to native rat GLP-2(1-33) = 100%) (CD1 mice): 50%
- metabolised at 24 h, 0.19 mg/ml (DPP-IV): 16%

Compound: H-HSDGSFSDEMNTILDNLAARDFINWLIQTKITD-OH [[Ser2]hGLP-2(1-33)]
- % Activity (small bowel inducing activity relative to native rat GLP-2(1-33) = 100%) (CD1 mice): 167%
- metabolised at 24 h, 0.19 mg/ml (DPP-IV): 0%

Compound: CC[C@H](C)[C@H](NC(=O)[C@H](Cc1ccccc1)NC(=O)[C@H](CC(=O)O)NC(=O)[C@H](CCCNC(=N)N)NC(=O)[C@H](C)NC(=O)[C@H](C)NC(=O)[C@H](CC(C)C)NC(=O)[C@H](CC(N)=O)NC(=O)[C@H](CC(=O)O)NC(=O)[C@H](CC(C)C)NC(=O)[C@@H](NC(=O)[C@@H](NC(=O)[C@H](CC(N)=O)NC(=O)[C@H](CCSC)NC(=O)[C@H](CCC(=O)O)NC(=O)[C@H](CC(=O)O)NC(=O)[C@H](CO)NC(=O)[C@H](Cc1ccccc1)NC(=O)[C@H](CO)NC(=O)CNC(=O)[C@H](CC(=O)O)NC(=O)[C@@H](NC(=O)[C@@H](N)Cc1c[nH]cn1)c1ccccc1)[C@@H](C)O)[C@@H](C)CC)C(=O)N[C@@H](CC(N)=O)C(=O)N[C@@H](Cc1c[nH]c2ccccc12)C(=O)N[C@@H](CC(C)C)C(=O)N[C@H](C(=O)N[C@@H](CCC(N)=O)C(=O)N[C@H](C(=O)N[C@@H](CCCCN)C(=O)N[C@H](C(=O)N[C@H](C(=O)N[C@@H](CC(=O)O)C(=O)O)[C@@H](C)O)[C@@H](C)CC)[C@@H](C)O)[C@@H](C)CC [[PhGly2]hGLP-2(1-33)] (H-H[Phg]DGSFSDEMNTILDNLAARDFINWLIQTKITD-OH)
- % Activity (small bowel inducing activity relative to native rat GLP-2(1-33) = 100%) (CD1 mice): 37%
- metabolised at 24 h, 0.19 mg/ml (DPP-IV): 0%

Compound: CC[C@H](C)[C@H](NC(=O)[C@H](Cc1ccccc1)NC(=O)[C@H](CC(=O)O)NC(=O)[C@H](CCCNC(=N)N)NC(=O)[C@H](C)NC(=O)[C@H](C)NC(=O)[C@H](CC(C)C)NC(=O)[C@H](CC(N)=O)NC(=O)[C@H](CC(=O)O)NC(=O)[C@H](CC(C)C)NC(=O)[C@@H](NC(=O)[C@@H](NC(=O)[C@H](CC(N)=O)NC(=O)[C@H](CCSC)NC(=O)[C@H](CCC(=O)O)NC(=O)[C@H](CC(=O)O)NC(=O)[C@H](CO)NC(=O)[C@H](Cc1ccccc1)NC(=O)[C@H](CO)NC(=O)CNC(=O)[C@H](CC(=O)O)NC(=O)CCNC(=O)[C@@H](N)Cc1c[nH]cn1)[C@@H](C)O)[C@@H](C)CC)C(=O)N[C@@H](CC(N)=O)C(=O)N[C@@H](Cc1c[nH]c2ccccc12)C(=O)N[C@@H](CC(C)C)C(=O)N[C@H](C(=O)N[C@@H](CCC(N)=O)C(=O)N[C@H](C(=O)N[C@@H](CCCCN)C(=O)N[C@H](C(=O)N[C@H](C(=O)N[C@@H](CC(=O)O)C(=O)O)[C@@H](C)O)[C@@H](C)CC)[C@@H](C)O)[C@@H](C)CC [[bAla2]hGLP-2(1-33)] (H-H[βAla]DGSFSDEMNTILDNLAARDFINWLIQTKITD-OH)
- % Activity (small bowel inducing activity relative to native rat GLP-2(1-33) = 100%) (CD1 mice): 118%
- metabolised at 24 h, 0.19 mg/ml (DPP-IV): 0%

Compound: H-HGAGSFSDEMNTILDNLAARDFINWLIQTKITD-OH [[Gly2,Ala3]hGLP-2(1-33)]
- % Increase in small bowel weight (CD1 mice): 18%
- % Activity (small bowel inducing activity relative to native rat GLP-2(1-33) = 100%) (CD1 mice): 44%
- metabolised at 24 h, 0.19 mg/ml (DPP-IV): 0%

Compound: H-HADASFSDEMNTILDNLATRDFINWLIQTKITD-OH [[Ala4]ratGLP-2(1-33)]
- % Increase in small bowel weight (CD1 mice): 30%
- % Activity (small bowel inducing activity relative to native rat GLP-2(1-33) = 100%) (CD1 mice): 59%
- metabolised at 24 h, 0.19 mg/ml (DPP-IV): 72%

Compound: H-HKDGSFSDEMNTILDNLAARDFINWLIQTKITD-OH [[Lys2]hGLP-2(1-33)]
- % Activity (small bowel inducing activity relative to native rat GLP-2(1-33) = 100%) (CD1 mice): 90%
- metabolised at 24 h, 0.19 mg/ml (DPP-IV): 0%

Compound: CC[C@H](C)[C@H](NC(=O)[C@H](Cc1ccccc1)NC(=O)[C@H](CC(=O)O)NC(=O)[C@H](CCCNC(=N)N)NC(=O)[C@H](C)NC(=O)[C@H](C)NC(=O)[C@H](CC(C)C)NC(=O)[C@H](CC(N)=O)NC(=O)[C@H](CC(=O)O)NC(=O)[C@H](CC(C)C)NC(=O)[C@@H](NC(=O)[C@@H](NC(=O)[C@H](CC(N)=O)NC(=O)[C@H](CCSC)NC(=O)[C@H](CCC(=O)O)NC(=O)[C@H](CC(=O)O)NC(=O)[C@H](CO)NC(=O)[C@H](Cc1ccccc1)NC(=O)[C@H](CO)NC(=O)CNC(=O)[C@H](CC(=O)O)NC(=O)CNC(=O)[C@@H](N)Cc1c[nH]cn1)[C@@H](C)O)[C@@H](C)CC)C(=O)N[C@@H](CC(N)=O)C(=O)N[C@@H](Cc1c[nH]c2ccccc12)C(=O)N[C@@H](CC(C)C)C(=O)N[C@H](C(=O)N[C@@H](CCC(N)=O)C(=O)N[C@H](C(=O)N[C@@H](CCCCN)C(=O)N[C@H](C(=O)N[C@H](C(=O)N[C@@H](CC(=O)O)C(=O)N[C@@H](CCCNC(=N)N)C(=O)O)[C@@H](C)O)[C@@H](C)CC)[C@@H](C)O)[C@@H](C)CC [[Gly2, Arg34]hGLP-2(1-34)]
- % Activity (small bowel inducing activity relative to native rat GLP-2(1-33) = 100%) (CD1 mice): ~250%
- metabolised at 24 h, 0.19 mg/ml (DPP-IV): 0%

Compound: CCC[C@H](NC(=O)[C@@H](N)Cc1c[nH]cn1)C(=O)N[C@@H](CC(=O)O)C(=O)NCC(=O)N[C@@H](CO)C(=O)N[C@@H](Cc1ccccc1)C(=O)N[C@@H](CO)C(=O)N[C@@H](CC(=O)O)C(=O)N[C@@H](CCC(=O)O)C(=O)N[C@@H](CCSC)C(=O)N[C@@H](CC(N)=O)C(=O)N[C@H](C(=O)N[C@H](C(=O)N[C@@H](CC(C)C)C(=O)N[C@@H](CC(=O)O)C(=O)N[C@@H](CC(N)=O)C(=O)N[C@@H](CC(C)C)C(=O)N[C@@H](C)C(=O)N[C@@H](C)C(=O)N[C@@H](CCCNC(=N)N)C(=O)N[C@@H](CC(=O)O)C(=O)N[C@@H](Cc1ccccc1)C(=O)N[C@H](C(=O)N[C@@H](CC(N)=O)C(=O)N[C@@H](Cc1c[nH]c2ccccc12)C(=O)N[C@@H](CC(C)C)C(=O)N[C@H](C(=O)N[C@@H](CCC(N)=O)C(=O)N[C@H](C(=O)N[C@@H](CCCCN)C(=O)N[C@H](C(=O)N[C@H](C(=O)N[C@@H](CC(=O)O)C(=O)O)[C@@H](C)O)[C@@H](C)CC)[C@@H](C)O)[C@@H](C)CC)[C@@H](C)CC)[C@@H](C)CC)[C@@H](C)O [[Nval2]hGLP-2(1-33)] (H-H[Nva]DGSFSDEMNTILDNLAARDFINWLIQTKITD-OH)
- % Activity (small bowel inducing activity relative to native rat GLP-2(1-33) = 100%) (CD1 mice): 111%
- metabolised at 24 h, 0.19 mg/ml (DPP-IV): 0%

Compound: H-HEDGSFSDEMNTILDNLAARDFINWLIQTKITD-OH [[Glu2]hGLP-2(1-33)]
- % Activity (small bowel inducing activity relative to native rat GLP-2(1-33) = 100%) (CD1 mice): 93%
- metabolised at 24 h, 0.19 mg/ml (DPP-IV): 0%

Compound: H-PADGSFSDEMNTILDNLAARDFINWLIQTKITD-OH [[Pro1]hGLP-2(1-33)]
- % Activity (small bowel inducing activity relative to native rat GLP-2(1-33) = 100%) (CD1 mice): 12%
- metabolised at 24 h, 0.19 mg/ml (DPP-IV): 0%

— patent US8933039B2 (NPS Pharmaceuticals, Inc., priority 1995, dated 2015)
